Measurements: ChEMBL document CHEMBL5247590, “Novel nitrogen mustard-artemisinin hybrids with potent anti-leukemia action through DNA damage and activation of GPx” (Eur J Med Chem, 2022)

Columns and labels:
[1] = Selectivity index, ratio of IC50 for human L02 cells to IC50 for human CCRF-CEM cells; type: toxicity; details: L02 cells and CCRF-CEM cells, read-out: Selectivity Index
K562 = assay: Antiproliferative activity against human K562 cells assessed as cell growth inhibition incubated for 72 hrs by MTT assay; type: functional, cell-based; details: K562, 72 h
[2] = Selectivity index, ratio of IC50 for human K562 cells to IC50 for human CCRF-CEM cells
HCT-116 = assay: Antiproliferative activity against human HCT-116 cells assessed as cell growth inhibition incubated for 72 hrs by MTT assay; type: functional, cell-based; details: HCT-116, 72 h
HL-60 [3] = assay: Antiproliferative activity against human HL-60 cells assessed as cell growth inhibition incubated for 72 hrs by MTT assay; type: functional, cell-based; details: HL-60, 72 h
U-118-MG = assay: Antiproliferative activity against human U-118-MG cells assessed as cell growth inhibition incubated for 72 hrs by MTT assay; type: functional, cell-based
SH-SY5Y = assay: Antiproliferative activity against human SH-SY5Y cells assessed as cell growth inhibition incubated for 72 hrs by MTT assay; type: functional, cell-based
CCRF-CEM = assay: Antiproliferative activity against human CCRF-CEM cells assessed as cell growth inhibition incubated for 72 hrs by MTT assay; type: functional, cell-based
[4] = Selectivity index, ratio of IC50 for human HL-60 cells to IC50 for human CCRF-CEM cells
A549 = assay: Antiproliferative activity against human A549 cells assessed as cell growth inhibition incubated for 72 hrs by MTT assay; type: functional, cell-based; details: A549, 72 h
[5] = Antiproliferative activity against human L02 cells assessed as cell growth inhibition incubated for 72 hrs by MTT assay; type: toxicity, cell-based
[6] = Antitumor activity against human L02 cells assessed as cell growth inhibition; type: toxicity, cell-based
HL-60 [7] = assay: Antitumor activity against human HL-60 cells assessed as cell growth inhibition; type: functional, cell-based
[8] = Antitumor activity against PBMC cells (unknown origin) assessed as cell growth inhibition; type: functional, cell-based; details: Homo sapiens
Bel-7402 = assay: Antitumor activity against human Bel-7402 cells assessed as cell growth inhibition; type: functional, cell-based

SMILES	selectivity ratio [1]	IC50 (K562)	Selectivity Index [2]	IC50 (HCT-116)	IC50 (HL-60 [3])	IC50 (U-118-MG)	IC50 (SH-SY5Y)	IC50 (CCRF-CEM)	Selectivity Index [4]	IC50 (A549)	IC50 at 72 h [5]	IC50 [6]	IC50 (HL-60 [7])	IC50 [8]	IC50 (Bel-7402)
O=C(O)CCCc1ccc(N(CCCl)CCCl)cc1 [CHLORAMBUCIL]	8.79	> 100 µM	1.05	> 40 µM	34.4 µM	> 40 µM	> 40 µM	12 µM	24.1	> 40 µM	–	–	–	–	–
C[C@@H]1CC[C@@H]2[C@]34OO[C@](C)(CC[C@@H]13)O[C@H]4O[C@]2(C)COC(=O)c1ccccc1N(CCCl)CCCl	5.19	9.61 µM	0.8	11.8 µM	0.789 µM	> 40 µM	22.1 µM	1.48 µM	9.73	5.79 µM	7.68 µM	–	–	–	–
C[C@@H]1CC[C@H]2[C@@H](C)C(OC(=O)Cc3ccc(N(CCCl)CCCl)cc3)O[C@@H]3O[C@@]4(C)CC[C@@H]1[C@]32OO4 (stereo not given in full)	–	15.5 µM	–	5.89 µM	11.2 µM	> 40 µM	> 40 µM	1.57 µM	–	12.7 µM	15.9 µM	–	–	–	–
C[C@@H]1CC[C@@H]2[C@]34OO[C@](C)(CC[C@@H]13)O[C@H]4O[C@]2(C)COC(=O)c1ccc(N(CCCl)CCCl)c(F)c1	–	–	–	> 40 µM	–	> 40 µM	> 40 µM	> 40 µM	–	> 40 µM	> 40 µM	–	–	–	–
C[C@@H]1CC[C@H]2[C@@H](C)C(OC(=O)c3cccc(N(CCCl)CCCl)c3)O[C@@H]3O[C@@]4(C)CC[C@@H]1[C@]32OO4 (stereo not given in full)	–	–	–	–	–	> 40 µM	> 40 µM	> 40 µM	–	3.24 µM	> 40 µM	–	–	–	–
C=C1C(=O)[C@@]23C(=O)O[C@H]4CCC(C)(C)[C@H]5[C@H](O)OC[C@@]45[C@@H]2CC[C@@H]1[C@H]3OC(=O)c1ccc(N(CCCl)CCCl)cc1	–	–	–	–	–	–	–	–	–	–	–	> 100 µM	–	–	–
C[C@@H]1CC[C@H]2[C@@H](C)C(OC(=O)CCc3ccc(N(CCCl)CCCl)cc3)O[C@@H]3O[C@@]4(C)CC[C@@H]1[C@]32OO4 (stereo not given in full)	–	50.2 µM	–	8.08 µM	30.4 µM	> 40 µM	> 40 µM	4.13 µM	–	> 40 µM	> 40 µM	–	–	–	–
C[C@H]1[C@@H](O)O[C@@H]2O[C@@]3(C)CC[C@H]4[C@H](C)CC[C@@H]1[C@@]24OO3 [ARTENIMOL]	–	21.8 µM	–	> 40 µM	61.2 µM	–	> 40 µM	5.13 µM	–	> 40 µM	24.3 µM	–	–	–	–
C[C@@H]1CC[C@H]2[C@@H](C)C(OC(=O)c3ccccc3N(CCCl)CCCl)O[C@@H]3O[C@@]4(C)CC[C@@H]1[C@]32OO4 (stereo not given in full)	–	–	–	25.6 µM	–	> 40 µM	> 40 µM	3.41 µM	–	8.22 µM	8.24 µM	–	–	–	–
C[C@@H]1CC[C@@H]2[C@]34OO[C@](C)(CC[C@@H]13)O[C@H]4O[C@]2(C)COC(=O)Cc1ccc(N(CCCl)CCCl)cc1	–	> 100 µM	–	40 µM	20.9 µM	> 40 µM	> 40 µM	3.84 µM	–	> 40 µM	> 40 µM	–	–	–	–
C[C@@H]1CC[C@H]2[C@@H](C)C(OC(=O)c3ccc(N(CCCl)CCCl)c(F)c3)O[C@@H]3O[C@@]4(C)CC[C@@H]1[C@]32OO4 (stereo not given in full)	–	–	–	4.19 µM	–	> 40 µM	> 40 µM	24.7 µM	–	8.59 µM	> 40 µM	–	–	–	–
COC(=O)[C@H](Cc1ccc(N(CCCl)CCCl)cc1)NC(=O)CCC(=O)OCCCOCCCn1c2c(c3ccccc31)CCN1C(=O)c3ccccc3N(C)[C@H]21	–	–	–	–	–	–	–	–	–	–	–	–	0.5 µM	> 200 µM	–
O=C(OCCCOc1ccc(-c2cc(=O)c3c(O)c(O)c(O)cc3o2)cc1)c1ccc(N(CCCl)CCCl)cc1	–	–	–	–	–	–	–	–	–	–	–	> 50 µM	–	–	–
C[C@@H]1CC[C@@H]2[C@]34OO[C@](C)(CC[C@@H]13)O[C@H]4O[C@]2(C)COC(=O)CCc1ccc(N(CCCl)CCCl)cc1	–	–	–	20.8 µM	–	> 40 µM	> 40 µM	8.81 µM	–	> 40 µM	> 40 µM	–	–	–	–
Cc1cc(C(=O)OC2O[C@@H]3O[C@@]4(C)CC[C@H]5[C@H](C)CC[C@@H]([C@H]2C)[C@@]35OO4)ccc1N(CCCl)CCCl (stereo not given in full)	–	–	–	6.72 µM	–	> 40 µM	> 40 µM	1.87 µM	–	7.02 µM	5 µM	–	–	–	–
C[C@@H]1CC[C@@H]2[C@]34OO[C@](C)(CC[C@@H]13)O[C@H]4O[C@]2(C)COC(=O)c1ccc(N(CCCl)CCCl)cc1	–	–	–	7.96 µM	–	> 40 µM	> 40 µM	4.51 µM	–	5.24 µM	> 40 µM	–	–	–	–
C[C@@H]1CC[C@H]2[C@@H](C)C(OC(=O)CCCc3ccc(N(CCCl)CCCl)cc3)O[C@@H]3O[C@@]4(C)CC[C@@H]1[C@]32OO4 (stereo not given in full)	–	–	–	12.3 µM	–	> 40 µM	> 40 µM	1.38 µM	–	14.9 µM	> 40 µM	–	–	–	–
C[C@@H]1CC[C@@H]2[C@]34OO[C@](C)(CC[C@@H]13)O[C@H]4O[C@]2(C)COC(=O)c1cccc(N(CCCl)CCCl)c1	–	–	–	8.42 µM	–	22.1 µM	> 40 µM	> 40 µM	–	> 40 µM	32 µM	–	–	–	–
C=C1C(=O)[C@]23[C@H](OC(=O)c4ccc(N(CCCl)CCCl)cc4)[C@H]1CC[C@H]2[C@@]12CO[C@@]3(O)[C@@H](O)[C@@H]1C(C)(C)CC[C@@H]2O	–	–	–	–	–	–	–	–	–	–	–	4.03 µM	–	–	0.5 µM
COc1cccc2c1C(=O)c1c(O)c3c(c(O)c1C2=O)C[C@@](O)(C(=O)CO)C[C@@H]3O[C@H]1C[C@H](N)[C@H](O)[C@H](C)O1 [DOXORUBICIN]	–	–	–	1.88 µM	–	–	1.54 µM	–	–	–	–	–	–	–	–
Cc1cc(C(=O)OC[C@@]2(C)O[C@@H]3O[C@@]4(C)CC[C@H]5[C@H](C)CC[C@@H]2[C@@]35OO4)ccc1N(CCCl)CCCl	3.37	0.589 µM	3.18	4.22 µM	2.97 µM	> 40 µM	> 40 µM	0.55 µM	0.63	7.03 µM	1.87 µM	–	–	–	–
C[C@@H]1CC[C@@H]2[C@]34OO[C@](C)(CC[C@@H]13)O[C@H]4O[C@]2(C)COC(=O)CCCc1ccc(N(CCCl)CCCl)cc1	–	–	–	> 40 µM	–	> 40 µM	> 40 µM	25.3 µM	–	> 40 µM	> 40 µM	–	–	–	–
